Reference: ChEMBL document CHEMBL4507319 (2021)

Tests used:
[1] = target: Sodium-dependent noradrenaline transporter (Homo sapiens) (UniProt P23975); conditions: Compound concentration 10.0 uM
[2] = target: Dual specificity protein kinase CLK1 (Homo sapiens) (UniProt P49759); conditions: Compound concentration 1000.0 nM
[3] = target: T1, NUAK family SNF1-like kinase 2 (Homo sapiens) (UniProt Q9H093); conditions: Compound concentration 1000.0 nM
T1 sequence (whole entry): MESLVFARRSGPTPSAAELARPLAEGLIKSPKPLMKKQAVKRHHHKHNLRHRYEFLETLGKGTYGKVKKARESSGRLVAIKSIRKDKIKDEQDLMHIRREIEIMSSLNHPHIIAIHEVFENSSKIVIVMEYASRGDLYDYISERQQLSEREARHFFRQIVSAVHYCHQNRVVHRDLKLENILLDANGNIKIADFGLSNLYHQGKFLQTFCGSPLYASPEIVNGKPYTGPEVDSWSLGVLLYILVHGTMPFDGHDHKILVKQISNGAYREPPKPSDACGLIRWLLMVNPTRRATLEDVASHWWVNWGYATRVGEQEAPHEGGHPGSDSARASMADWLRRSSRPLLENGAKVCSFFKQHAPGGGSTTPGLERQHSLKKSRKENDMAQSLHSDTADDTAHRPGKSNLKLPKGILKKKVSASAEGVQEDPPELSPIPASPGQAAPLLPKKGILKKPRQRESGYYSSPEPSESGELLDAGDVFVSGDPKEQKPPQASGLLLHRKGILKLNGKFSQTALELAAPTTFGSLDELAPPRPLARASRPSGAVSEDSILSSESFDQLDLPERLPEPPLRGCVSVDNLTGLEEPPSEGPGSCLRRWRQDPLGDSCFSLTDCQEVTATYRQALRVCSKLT

[4] = target: Tyrosine-protein kinase Srms (Homo sapiens) (UniProt Q9H3Y6); conditions: Compound concentration 1000.0 nM
[5] = target: Serine/threonine-protein kinase N1 (Homo sapiens) (UniProt Q16512); conditions: Compound concentration 1000.0 nM
[6] = tested on: Phosphatidylinositol 4,5-bisphosphate 3-kinase catalytic subunit alpha isoform (Homo sapiens), P42336 [E545K]; conditions: Compound concentration 1000.0 nM
[7] = target: 1-phosphatidylinositol 3-phosphate 5-kinase (Homo sapiens) (UniProt Q9Y2I7); conditions: Compound concentration 1000.0 nM
[8] = target: LIM domain kinase 1 (Homo sapiens) (UniProt P53667); conditions: Compound concentration 1000.0 nM
[9] = target: Alpha-1D adrenergic receptor (Homo sapiens) (UniProt P25100); conditions: Compound concentration 10.0 uM
[10] = tested on: Receptor-type tyrosine-protein kinase FLT3 (Homo sapiens), P36888 [UNDEFINED MUTATION]; conditions: Compound concentration 1000.0 nM
[11] = target: Ephrin type-A receptor 5 (Homo sapiens) (UniProt P54756); conditions: Compound concentration 1000.0 nM
[12] = target: Aurora kinase C (Homo sapiens) (UniProt Q9UQB9); conditions: Compound concentration 1000.0 nM
[13] = organism: Rattus norvegicus; conditions: Compound concentration 10.0 uM
[14] = target: T2, Ephrin type-A receptor 3 (Homo sapiens) (UniProt P29320); conditions: Compound concentration 1000.0 nM
T2 sequence (whole entry): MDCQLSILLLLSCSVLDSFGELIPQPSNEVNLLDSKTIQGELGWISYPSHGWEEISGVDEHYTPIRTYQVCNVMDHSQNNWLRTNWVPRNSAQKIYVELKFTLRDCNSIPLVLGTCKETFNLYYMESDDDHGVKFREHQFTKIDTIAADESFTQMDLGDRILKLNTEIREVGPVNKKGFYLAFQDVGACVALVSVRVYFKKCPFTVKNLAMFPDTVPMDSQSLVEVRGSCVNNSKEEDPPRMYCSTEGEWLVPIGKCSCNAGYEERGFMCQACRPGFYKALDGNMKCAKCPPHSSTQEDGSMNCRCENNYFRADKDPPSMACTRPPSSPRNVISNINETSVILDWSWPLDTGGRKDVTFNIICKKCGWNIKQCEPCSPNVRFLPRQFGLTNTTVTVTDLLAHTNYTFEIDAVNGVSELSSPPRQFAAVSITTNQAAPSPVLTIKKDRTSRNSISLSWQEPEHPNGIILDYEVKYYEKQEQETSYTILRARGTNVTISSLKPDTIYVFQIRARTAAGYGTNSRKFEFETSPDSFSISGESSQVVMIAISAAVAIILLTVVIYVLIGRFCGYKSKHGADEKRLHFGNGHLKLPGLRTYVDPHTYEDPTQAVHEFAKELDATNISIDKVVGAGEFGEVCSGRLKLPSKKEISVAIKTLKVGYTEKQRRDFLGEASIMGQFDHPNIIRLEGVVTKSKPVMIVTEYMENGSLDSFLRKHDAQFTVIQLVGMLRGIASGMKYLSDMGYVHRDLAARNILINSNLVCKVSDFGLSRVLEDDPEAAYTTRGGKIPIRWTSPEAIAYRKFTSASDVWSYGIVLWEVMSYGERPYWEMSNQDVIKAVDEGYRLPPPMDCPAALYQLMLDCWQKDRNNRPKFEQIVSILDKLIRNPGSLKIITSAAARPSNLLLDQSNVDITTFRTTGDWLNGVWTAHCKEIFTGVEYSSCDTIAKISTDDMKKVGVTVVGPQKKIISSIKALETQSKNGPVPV

[15] = target: Homeodomain-interacting protein kinase 1 (Homo sapiens) (UniProt Q86Z02); conditions: Compound concentration 1000.0 nM
[16] = target: Cyclin-dependent kinase 9 (Homo sapiens) (UniProt P50750); conditions: Compound concentration 1000.0 nM
[17] = tested on: Phosphatidylinositol 4,5-bisphosphate 3-kinase catalytic subunit alpha isoform (Homo sapiens), P42336 [I800L]; conditions: Compound concentration 1000.0 nM
[18] = target: cAMP-dependent protein kinase catalytic subunit beta (Homo sapiens) (UniProt P22694); conditions: Compound concentration 1000.0 nM
[19] = tested on: Tyrosine-protein kinase ABL1 (Homo sapiens), P00519 [F317L]; conditions: Compound concentration 1000.0 nM
[20] = target: RAC-beta serine/threonine-protein kinase (Homo sapiens) (UniProt P31751); conditions: Compound concentration 1000.0 nM
[21] = tested on: Epidermal growth factor receptor (Homo sapiens), P00533 [UNDEFINED MUTATION]; conditions: Compound concentration 1000.0 nM
[22] = target: 5-hydroxytryptamine receptor 5A (Homo sapiens) (UniProt P47898); conditions: Compound concentration 10.0 uM
[23] = tested on: Phosphatidylinositol 4,5-bisphosphate 3-kinase catalytic subunit alpha isoform (Homo sapiens), P42336 [Q546K]; conditions: Compound concentration 1000.0 nM
Chain of Phosphatidylinositol 4,5-bisphosphate 3-kinase catalytic subunit alpha isoform (Homo sapiens), P42336 [Q546K] (P42336 whole entry Q546K, canonical isoform): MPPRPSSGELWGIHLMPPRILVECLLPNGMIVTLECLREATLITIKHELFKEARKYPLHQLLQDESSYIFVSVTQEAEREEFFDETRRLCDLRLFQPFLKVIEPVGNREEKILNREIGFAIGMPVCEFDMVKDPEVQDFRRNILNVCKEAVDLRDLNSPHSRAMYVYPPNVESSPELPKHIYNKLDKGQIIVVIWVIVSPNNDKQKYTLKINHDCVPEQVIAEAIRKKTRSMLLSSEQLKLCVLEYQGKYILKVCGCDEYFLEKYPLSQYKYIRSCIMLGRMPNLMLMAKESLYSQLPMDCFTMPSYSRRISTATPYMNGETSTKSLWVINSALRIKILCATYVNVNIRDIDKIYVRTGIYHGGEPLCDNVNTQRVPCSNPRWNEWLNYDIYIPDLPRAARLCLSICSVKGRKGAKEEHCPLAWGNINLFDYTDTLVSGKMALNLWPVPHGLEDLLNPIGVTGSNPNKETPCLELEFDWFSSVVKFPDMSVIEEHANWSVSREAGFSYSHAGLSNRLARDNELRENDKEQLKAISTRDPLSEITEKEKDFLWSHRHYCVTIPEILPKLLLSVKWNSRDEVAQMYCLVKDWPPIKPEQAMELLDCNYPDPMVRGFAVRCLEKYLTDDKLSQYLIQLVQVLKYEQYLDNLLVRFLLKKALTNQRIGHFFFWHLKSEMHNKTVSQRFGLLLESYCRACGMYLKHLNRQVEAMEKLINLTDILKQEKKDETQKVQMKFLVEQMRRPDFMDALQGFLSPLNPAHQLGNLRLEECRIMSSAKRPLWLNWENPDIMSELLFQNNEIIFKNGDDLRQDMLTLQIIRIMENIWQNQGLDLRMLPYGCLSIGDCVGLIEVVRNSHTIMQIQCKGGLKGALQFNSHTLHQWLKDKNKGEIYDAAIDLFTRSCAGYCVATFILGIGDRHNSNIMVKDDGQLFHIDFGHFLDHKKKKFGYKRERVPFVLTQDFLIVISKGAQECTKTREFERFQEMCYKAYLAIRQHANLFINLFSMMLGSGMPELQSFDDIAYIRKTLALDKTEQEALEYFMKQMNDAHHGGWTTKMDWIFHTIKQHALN

Chain of Phosphatidylinositol 4,5-bisphosphate 3-kinase catalytic subunit alpha isoform (Homo sapiens), P42336 [E545K] (P42336 whole entry E545K, canonical isoform): as the sequence (P42336 whole entry Q546K, canonical isoform) above, with E545K, K546Q counted along it
Chain of Serine/threonine-protein kinase N1 (Homo sapiens) (Q16512 2-942 limits assumed): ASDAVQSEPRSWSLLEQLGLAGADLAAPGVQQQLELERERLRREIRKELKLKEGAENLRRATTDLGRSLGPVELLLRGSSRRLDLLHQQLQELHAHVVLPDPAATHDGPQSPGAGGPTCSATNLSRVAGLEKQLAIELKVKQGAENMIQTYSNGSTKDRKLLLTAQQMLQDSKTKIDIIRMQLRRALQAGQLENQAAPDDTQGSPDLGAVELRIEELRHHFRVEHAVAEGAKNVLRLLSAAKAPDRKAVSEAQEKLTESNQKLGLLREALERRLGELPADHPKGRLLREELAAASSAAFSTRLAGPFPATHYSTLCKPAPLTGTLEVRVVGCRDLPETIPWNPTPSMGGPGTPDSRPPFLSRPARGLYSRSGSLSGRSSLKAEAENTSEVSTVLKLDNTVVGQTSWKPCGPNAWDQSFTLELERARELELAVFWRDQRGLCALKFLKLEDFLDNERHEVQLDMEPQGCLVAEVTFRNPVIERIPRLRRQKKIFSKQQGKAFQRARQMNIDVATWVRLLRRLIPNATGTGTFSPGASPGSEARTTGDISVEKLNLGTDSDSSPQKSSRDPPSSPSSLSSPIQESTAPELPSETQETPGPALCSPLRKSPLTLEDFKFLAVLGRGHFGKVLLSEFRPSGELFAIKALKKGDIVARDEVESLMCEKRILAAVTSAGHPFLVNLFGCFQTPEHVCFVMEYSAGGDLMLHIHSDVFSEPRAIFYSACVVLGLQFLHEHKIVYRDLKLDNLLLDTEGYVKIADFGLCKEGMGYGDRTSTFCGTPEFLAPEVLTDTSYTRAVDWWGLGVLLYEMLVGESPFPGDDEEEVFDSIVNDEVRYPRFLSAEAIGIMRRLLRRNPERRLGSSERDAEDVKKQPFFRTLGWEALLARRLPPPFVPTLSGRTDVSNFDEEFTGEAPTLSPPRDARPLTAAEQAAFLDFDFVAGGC
Chain of 1-phosphatidylinositol 3-phosphate 5-kinase (Homo sapiens) (Q9Y2I7 whole entry, the tested form may be a part): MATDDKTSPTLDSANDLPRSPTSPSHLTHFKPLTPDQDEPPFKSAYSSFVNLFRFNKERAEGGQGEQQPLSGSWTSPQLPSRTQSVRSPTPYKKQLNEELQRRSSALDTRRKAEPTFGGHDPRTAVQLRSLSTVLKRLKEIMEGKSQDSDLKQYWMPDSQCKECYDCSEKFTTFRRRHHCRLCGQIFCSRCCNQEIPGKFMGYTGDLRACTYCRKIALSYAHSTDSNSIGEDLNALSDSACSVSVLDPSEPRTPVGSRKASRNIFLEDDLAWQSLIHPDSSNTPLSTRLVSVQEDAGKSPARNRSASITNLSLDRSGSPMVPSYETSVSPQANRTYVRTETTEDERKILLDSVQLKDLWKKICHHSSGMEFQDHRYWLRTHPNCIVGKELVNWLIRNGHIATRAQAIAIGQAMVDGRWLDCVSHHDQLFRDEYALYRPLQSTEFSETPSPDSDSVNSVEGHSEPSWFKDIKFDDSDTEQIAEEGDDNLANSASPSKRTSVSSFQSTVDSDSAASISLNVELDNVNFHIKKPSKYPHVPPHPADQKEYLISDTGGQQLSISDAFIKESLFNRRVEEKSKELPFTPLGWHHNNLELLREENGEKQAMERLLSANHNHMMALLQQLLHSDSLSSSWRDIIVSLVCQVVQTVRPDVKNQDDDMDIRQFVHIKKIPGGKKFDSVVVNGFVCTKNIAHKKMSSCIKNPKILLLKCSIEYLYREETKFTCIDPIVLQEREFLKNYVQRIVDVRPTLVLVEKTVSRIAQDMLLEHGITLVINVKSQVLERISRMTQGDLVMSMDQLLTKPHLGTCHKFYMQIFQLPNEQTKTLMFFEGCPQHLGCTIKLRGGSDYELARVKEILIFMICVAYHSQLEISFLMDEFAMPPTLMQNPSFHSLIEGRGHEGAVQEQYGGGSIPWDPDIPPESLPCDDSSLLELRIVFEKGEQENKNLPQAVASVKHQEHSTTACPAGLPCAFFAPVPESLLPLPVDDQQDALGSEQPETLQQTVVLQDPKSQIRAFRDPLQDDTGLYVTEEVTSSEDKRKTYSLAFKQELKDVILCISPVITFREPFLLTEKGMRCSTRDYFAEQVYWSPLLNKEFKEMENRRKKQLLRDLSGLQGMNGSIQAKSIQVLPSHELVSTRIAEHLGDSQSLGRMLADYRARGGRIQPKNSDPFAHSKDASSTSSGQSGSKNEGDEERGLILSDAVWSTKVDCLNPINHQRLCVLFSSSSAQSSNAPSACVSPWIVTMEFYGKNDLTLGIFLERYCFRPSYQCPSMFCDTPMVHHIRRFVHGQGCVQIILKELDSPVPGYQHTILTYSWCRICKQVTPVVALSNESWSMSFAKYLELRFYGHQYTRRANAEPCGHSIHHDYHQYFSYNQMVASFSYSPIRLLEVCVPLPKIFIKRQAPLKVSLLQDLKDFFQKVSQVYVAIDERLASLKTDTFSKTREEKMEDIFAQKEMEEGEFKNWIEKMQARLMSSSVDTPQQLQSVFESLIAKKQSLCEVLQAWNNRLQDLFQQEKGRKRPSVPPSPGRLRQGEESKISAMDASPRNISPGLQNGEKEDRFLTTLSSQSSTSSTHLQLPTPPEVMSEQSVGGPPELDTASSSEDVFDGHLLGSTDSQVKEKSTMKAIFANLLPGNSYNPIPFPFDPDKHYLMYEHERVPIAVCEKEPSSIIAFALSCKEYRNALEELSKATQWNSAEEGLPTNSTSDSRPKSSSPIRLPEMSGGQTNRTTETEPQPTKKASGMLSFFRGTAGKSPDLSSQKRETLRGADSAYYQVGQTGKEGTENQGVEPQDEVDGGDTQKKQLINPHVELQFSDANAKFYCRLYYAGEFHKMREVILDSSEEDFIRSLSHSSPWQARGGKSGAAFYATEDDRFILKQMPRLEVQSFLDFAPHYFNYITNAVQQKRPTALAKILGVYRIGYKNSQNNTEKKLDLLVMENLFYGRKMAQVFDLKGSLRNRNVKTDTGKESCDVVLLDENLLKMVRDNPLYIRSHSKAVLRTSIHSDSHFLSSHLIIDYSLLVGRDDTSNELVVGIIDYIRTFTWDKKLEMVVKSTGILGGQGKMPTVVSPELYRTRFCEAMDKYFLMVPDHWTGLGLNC
Chain of LIM domain kinase 1 (Homo sapiens) (P53667 whole entry, looked up, the tested form may be a part): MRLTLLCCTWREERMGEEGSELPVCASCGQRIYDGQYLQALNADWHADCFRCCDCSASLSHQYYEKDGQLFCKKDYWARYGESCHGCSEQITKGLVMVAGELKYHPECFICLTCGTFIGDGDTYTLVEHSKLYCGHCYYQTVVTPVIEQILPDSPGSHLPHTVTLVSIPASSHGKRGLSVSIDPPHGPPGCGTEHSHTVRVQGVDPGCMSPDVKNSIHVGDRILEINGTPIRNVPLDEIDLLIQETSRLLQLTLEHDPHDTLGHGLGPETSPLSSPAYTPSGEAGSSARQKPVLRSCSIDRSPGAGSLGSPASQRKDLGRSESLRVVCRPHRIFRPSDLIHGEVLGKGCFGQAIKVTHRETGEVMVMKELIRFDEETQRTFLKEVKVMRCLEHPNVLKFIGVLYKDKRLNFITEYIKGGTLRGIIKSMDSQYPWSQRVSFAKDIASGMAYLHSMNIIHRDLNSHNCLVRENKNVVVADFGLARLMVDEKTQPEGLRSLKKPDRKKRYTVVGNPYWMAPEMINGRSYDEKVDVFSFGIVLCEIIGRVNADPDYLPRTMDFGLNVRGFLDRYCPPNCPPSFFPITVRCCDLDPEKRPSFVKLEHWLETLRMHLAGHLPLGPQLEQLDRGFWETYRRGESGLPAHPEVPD
Chain of Phosphatidylinositol 4,5-bisphosphate 3-kinase catalytic subunit alpha isoform (Homo sapiens), P42336 [I800L] (P42336 whole entry I800L, canonical isoform): as the sequence (P42336 whole entry Q546K, canonical isoform) above, with K546Q, I800L counted along it

Q: What does the source list for CCc1ccccc1C(=O)Nc1n[nH]c2c(C)c(F)c(C3C(C#N)=C(C)N(C)C(C)=C3C#N)cc12 [BAY-3827]?
A: inhibition [1]: 2.8%; residual activity [2]: 84%; residual activity [3]: 40%; residual activity [4]: 94%; residual activity [5]: 100%; residual activity [6]: 100%; residual activity [7]: 100%; residual activity [8]: 100%; inhibition [9]: 2.75%; residual activity [10]: 11%; residual activity [11]: 87%; residual activity [12]: 29%; inhibition [13]: 85.6%; residual activity [14]: 100%; residual activity [15]: 99%; residual activity [16]: 94%; residual activity [17]: 100%; residual activity [18]: 99%; residual activity [19]: 100%; residual activity [20]: 95%; residual activity [21]: 79%; inhibition [22]: 19.9%; residual activity [23]: 39%

Q: For CC1=C(C#N)C(c2ccc3c(c2)c(NC(=O)c2ccccc2C)nn3C)C(C#N)=C(C)N1 [BAY-974], which inhibition [1] is on record?
A: 2.85%

Q: And the residual activity [2]?
A: 87%

Q: And the residual activity [3]?
A: 81%

Q: What about the residual activity [4] of the same compound?
A: 57%

Q: And the residual activity [5]?
A: 78%

Q: What about the residual activity [6] of the same compound?
A: 90%

Q: And the residual activity [7]?
A: 87%

Q: And the residual activity [8]?
A: 94%

Q: And the inhibition [9]?
A: 4.71%

Q: And the residual activity [10]?
A: 96%

Q: What about the residual activity [11] of the same compound?
A: 77%

Q: And the residual activity [12]?
A: 97%

Q: What about the inhibition [13] of the same compound?
A: 96.3%

Q: What about the residual activity [14] of the same compound?
A: 99%

Q: What about the residual activity [15] of the same compound?
A: 71%

Q: And the residual activity [16]?
A: 100%

Q: What about the residual activity [17] of the same compound?
A: 93%

Q: What about the residual activity [18] of the same compound?
A: 100%

Q: And the residual activity [19]?
A: 97%

Q: And the residual activity [20]?
A: 100%

Q: What about the residual activity [21] of the same compound?
A: 73%

Q: And the inhibition [22]?
A: 0.04%

Q: And the residual activity [23]?
A: 87%
